# Data taken from PubChem BioAssay (NCI).
# Where “and” joins values, the source holds several entries; their conditions need not be identical. Equal values may be shown once.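 Briefly, cells in 96-well plates were exposed to five compound concentrations for 48 h, and endpoints were estimated by linear interpolation. Here, GI50 denotes the concentration required for 50% inhibition of growth. TGI is the concentration that stops growth completely.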
# Key:
# Test in all cases: NCI tumour cell line growth inhibition, 48 h
# UACC-257 melanoma = tested on: UACC-257 melanoma
# SW-620 colon = tested on: SW-620 colon
# IGROV1 ovarian = tested on: IGROV1 ovarian
# CAKI-1 renal = tested on: CAKI-1 renal
# SK-OV-3 ovarian = tested on: SK-OV-3 ovarian
# MOLT-4 leukemia = tested on: MOLT-4 leukemia
# SF-539 CNS = tested on: SF-539 CNS
# EKVX NSCLC = tested on: EKVX NSCLC
# K-562 leukemia = tested on: K-562 leukemia
# A498 renal = tested on: A498 renal
SMILES,TGI (UACC-257 melanoma) [µM],TGI (SW-620 colon),TGI (IGROV1 ovarian) [µM],TGI (CAKI-1 renal) [µM],TGI (SK-OV-3 ovarian) [µM],TGI (MOLT-4 leukemia) [µM],TGI (SF-539 CNS) [µM],TGI (EKVX NSCLC) [µM],TGI (K-562 leukemia) [µM],GI50 (UACC-257 melanoma) [µM],GI50 (A498 renal) [µM],TGI (A498 renal) [µM],GI50 (SW-620 colon) [µM],GI50 (IGROV1 ovarian) [µM],GI50 (CAKI-1 renal) [µM],GI50 (SK-OV-3 ovarian) [µM],GI50 (MOLT-4 leukemia) [µM],GI50 (SF-539 CNS) [µM],GI50 (EKVX NSCLC) [µM],GI50 (K-562 leukemia) [µM]
Oc1cccnc1[Se],> 100,> 100 µM,> 100,> 100,> 100,> 100,> 100,80.2,> 100,,,,,,,,,,,
CCn1c2ccccc2c2cc(NC(=O)Nc3ccc([N+](=O)[O-])cc3C)ccc21,68.7,48.1 µM,14.1,17.5,> 100,3.85,4.41,> 100,,16.6,11.5,64.1,3.38,3.38,4.35,18.1,1.29,1.83,5.35,
O=C(CSc1nc2ccccc2nc1-c1ccccc1)Nc1ccc(F)cc1,> 100,> 100 µM,> 100,> 100,> 100,,35.4,> 100,> 100,92.8,41.7,> 100,61,42.4,> 100,35,,18.6,75,30.8
COc1cc(-c2cc(-c3cc4c([nH]c5ccccc54)c(-c4cc(OC)c(OC)c(OC)c4)n3)cc(-c3ccccc3)n2)cc(OC)c1OC,44.6,> 100 µM,> 100,> 100,51.9,41.9,44.4,,> 100,6.14,1.64,7.96,3.62,6.44,5.67,5,4.09,4.97,,3.39
O=C(O)Cc1cc(Cl)ccc1O,> 100,> 100 µM,> 100,> 100,> 100,,> 100,> 100,> 100,,,> 100,,,,,,,,
COc1ccc(Nc2nnc(-c3cc(O)ccc3O)s2)cc1,> 50,22.8 µM,> 50,> 50,,20.6,25.8,> 50,> 50,> 50,> 50,> 50,11.3,28.9,34.2,,6.5,12.6,> 50,17.6
O=C(Nc1nc(=S)c2c(ncn2CCOC(=O)c2ccccc2)[nH]1)c1ccccc1,> 100,> 100 µM,> 100,> 100,> 100,,94.3,> 100,> 100,,,> 100,,,,,,,,
Nc1c(C(=O)Nc2ccncc2)sc2nc3c(cc12)CCCCCCCC3,1.74,1.88 µM,1.82,1.49,1.61,2.76,1.6,1.63,,0.948,0.871,1.58,0.957,0.933,0.805,0.846,1.22,0.878,0.851,
O=C1/C(=C/c2cccc(Cl)c2Cl)N=C(c2ccccc2)N1C1CC1,26.2,> 50 µM,> 50,39.5,,> 50,22.3,22.2,> 50,12.2,,,26.7,19.7,14.8,,19.2,10.3,9.9,13.5
Cc1cc(N(CCC#N)CCC#N)ccc1N=Nc1ccc(C(=O)O)cc1,> 100,> 100 µM,> 100,> 100,> 100,> 100,> 100,> 100,,,,> 100,,,,,,,,
[Cl][Hg][c]1cc[c]([Hg][Cl])o1,28.8,3.23 µM,10.1,,77.6,8.59,13.8,28.1,11.8,7.93,20,34.2,1.32,1.93,,15,1.58,3.08,2.78,1.24
CCOC(=O)C(=[N+]=[N-])[Si](C)(C)C,> 100,> 100 µM,> 100,> 100,,,> 100,,,,,> 100,,,,,,,,
NC(=O)C12CC3CC(CC(F)(C3)C1)C2,> 100,> 100 µM,> 100,,> 100,> 100,> 100,> 100,> 100,,,> 100,,,,,,,,
CNCC#Cc1c(F)ccc2c1/C(=C/c1[nH]ccc1OC)C(=O)N2,2.91,2.38 µM,3.15,0.521,3.52,2.26,0.853,,3.61,0.619,0.179,1.41,0.136,0.317,0.0238,0.104,0.132,0.243,,0.65
Cc1c2c(C#N)nccc2c(C)c2c1c1ccccc1n2Cc1ccccc1,> 100,> 100 µM,> 100,> 100,> 100,,> 100,> 100,> 100,,,,,,,,,,,
CCN1CCC(O)(c2ccc(OC)cc2)C(C(=O)c2ccc(OC)cc2)C1 (stereo not given),48,25.9 µM,> 100,31.3,> 100,> 100,32.4,98,> 100,,,,,,,,,,,
C#C[C@]1(O)CCC2C3CCc4cc(O)ccc4C3CC[C@@]21C (stereo not given in full),41.4,23.6 µM,52.4,87,49.6,26.3,14.7,> 100,,10.4,4.62,18.3,3.8,11.2,9.15,3.45,3.65,4,1.66,
[N-]=[N+]=N[C@H]1C[C@@H](CO)O[C@H]1n1cnc2c(N)ncnc21,> 100,> 100 µM,,> 100,,,> 100,> 100,,,,,,,,,,,,

SMILES,TGI (UACC-257 melanoma) [µM],TGI (SW-620 colon),TGI (IGROV1 ovarian) [µM],TGI (CAKI-1 renal) [µM],TGI (SK-OV-3 ovarian) [µM],TGI (MOLT-4 leukemia) [µM],TGI (SF-539 CNS) [µM],TGI (EKVX NSCLC) [µM],TGI (K-562 leukemia) [µM],GI50 (UACC-257 melanoma) [µM],GI50 (A498 renal) [µM],TGI (A498 renal) [µM],GI50 (SW-620 colon) [µM],GI50 (IGROV1 ovarian) [µM],GI50 (CAKI-1 renal) [µM],GI50 (SK-OV-3 ovarian) [µM],GI50 (MOLT-4 leukemia) [µM],GI50 (SF-539 CNS) [µM],GI50 (EKVX NSCLC) [µM],GI50 (K-562 leukemia) [µM]
CCCc1nc(NC#N)nc(C(=O)Nc2ccccc2)c1CC,> 100,> 100 µM,> 100,> 100,,> 100,> 100,> 100,> 100,,,> 100,,,,,,,,
CC1c2c(Cl)nc3ccccc3c2Oc2c1c(Cl)nc1ccccc21,> 100,> 100 µM,> 100,,> 100,> 100,> 100,> 100,> 100,,,> 100,,,,,,,,
COc1cc(NCc2ccc3nc(N)nc(N)c3c2C)cc(OC)c1OC (tested in a mixture with another compound),48.7,16.4 µM and 50.9 µM,68.6,,,46.7,,26.6,46.3,0.00993,,49.5,0.000285,,,0.0189,,,,0.000159
C=C(C)[C@@H]1CC[C@]2(C)[C@H](CC=C3[C@@H]4CC(C)(C)CC[C@]4(C(N)=O)CC[C@]32C)[C@@]1(C)CCC#N,> 100,30.1 µM,> 100,> 100,> 100,,13.6,> 100,> 100,4.09,2.16,5.32,3.21,3.92,3.01,4.62,,3.04,3.6,2.54
COc1ccc(CC2NCCc3c2[nH]c2ccccc32)cc1 (stereo not given),,> 100 µM,> 100,,> 100,> 100,> 100,> 100,> 100,,,> 100,,,,,,,,
CCC[CH2][Sn]([Cl])([CH2]CCC)[CH2]CCC,0.248,0.273 µM,0.625,1.23,0.56,0.632,,0.364,0.204,0.108,,,0.125,0.169,0.167,0.181,0.0522,,0.0564,0.0411
CC[C@H]1[C@@H]2C=C[C@@H]3[C@H]4C/C=C\C(=O)NCCC[C@@H]5NC(=O)/C(=C(O)/C=C/[C@@H]4C[C@@H]3[C@H]2C[C@H]1C)C5=O,3.49,7.59 µM,0.756,,3.48,3.47,2.72,3.31,4.24,1.71,1.67,3.08,2.46,0.252,,1.73,1.48,1.3,1.45,1.96
Cn1cc(C2=C(c3cn(CCCCO)c4ccccc34)C(=O)NC2=O)c2ccccc21,> 25,> 25 µM,> 22.9,> 25,> 25,> 22,16.7,,> 25,19.8,6.32,22.2,9.26,12.2,11.8,8.23,7.68,4.91,,9.75
Cc1[nH]c2ccccc2c1C(=O)/C=C/c1ccccc1O,> 100,> 100 µM,> 100,> 100,> 100,> 100,,> 100,> 100,,,> 100,,,,,,,,
CN(C)CC[PH+](c1ccccc1)c1ccccc1.CN(C)CC[PH+](c1ccccc1)c1ccccc1.[Cl-].[Pd+2],> 100,> 100 µM,> 100,> 100,> 100,,> 100,> 100,> 100,> 100,> 100,> 100,> 100,> 100,> 100,> 100,,> 100,> 100,27.8
O=C1/C(=C/c2ccc3c(c2)OCO3)SC2C=Nc3ccccc3N12 (stereo not given),> 100,> 100 µM,> 100,> 100,,> 100,> 100,> 100,,,,> 100,,,,,,,,
O=C(Nc1ccncc1)C(=O)c1cn(S(=O)(=O)c2ccc(F)cc2)c2ccccc12,> 100,> 100 µM,> 100,10.9,85.9,> 100,53.7,> 100,,11.7,6.57,63.2,2.34,4.23,2.19,22.3,5.22,2.1,3.9,
Cn1cc(-c2csc(-c3c[nH]c4ccc(F)cc34)n2)c2cnccc21,3.55,4.09 µM,3.09,3.05,3.16,,3.04,3.3,,1.96,1.87,3.31,2.12,1.59,1.65,1.73,,1.63,1.62,
O=C1/C(=C/c2ccc(Cl)cc2)CCC1CCN1CCOCC1 (stereo not given),> 100,> 100 µM,> 100,> 100,,82.6,> 100,> 100,> 100,,,> 100,,,,,,,,
CC12CP(=O)(c3ccccc3)CC1C2(Cl)Cl (stereo not given),,> 100 µM,> 100,,> 100,> 100,> 100,> 100,> 100,,,,,,,,,,,
O=C1C=CC(=O)c2cc3cc(CBr)ccc3cc21,> 100,4.97 µM,> 73.9,6.25,> 57.6,,,55.7,6.03,56.9,17.5,34.4,2.29,7.75,2.34,19.1,,,24.1,0.339
CCOc1ccc(NC(=O)CC#N)cc1,> 100,> 100 µM,> 100,> 100,> 100,> 100,,> 100,> 100,,,> 100,,,,,,,,
